Experimental data from patent publication US11485742B2, “2-azaspiro[3.4]octane derivatives as M4 agonists” (NOVARTIS AG, priority 2019, dated 2022).

Key:
[1] = target: T1, human cloned CHRM3 receptor (Homo sapiens, UniProt P20309); assay: CHRM3 Ca++ Flux Assay (M3_CHO cells, agonist mode); format: cell-based; conditions: for Emax / M3 FDSS PA %: Percent Activity (PA) measured to EC100 of Carbachol; for Emax: read-out: M3 FDSS PA %; for EC50: agonist mode, geometric mean if tested more than once, read-out: M3 FDSS EC50
T1 construct: expressed in transfected cells; host or cells: CHO-K1 (M3_CHO)
T1 sequence (P20309 whole entry): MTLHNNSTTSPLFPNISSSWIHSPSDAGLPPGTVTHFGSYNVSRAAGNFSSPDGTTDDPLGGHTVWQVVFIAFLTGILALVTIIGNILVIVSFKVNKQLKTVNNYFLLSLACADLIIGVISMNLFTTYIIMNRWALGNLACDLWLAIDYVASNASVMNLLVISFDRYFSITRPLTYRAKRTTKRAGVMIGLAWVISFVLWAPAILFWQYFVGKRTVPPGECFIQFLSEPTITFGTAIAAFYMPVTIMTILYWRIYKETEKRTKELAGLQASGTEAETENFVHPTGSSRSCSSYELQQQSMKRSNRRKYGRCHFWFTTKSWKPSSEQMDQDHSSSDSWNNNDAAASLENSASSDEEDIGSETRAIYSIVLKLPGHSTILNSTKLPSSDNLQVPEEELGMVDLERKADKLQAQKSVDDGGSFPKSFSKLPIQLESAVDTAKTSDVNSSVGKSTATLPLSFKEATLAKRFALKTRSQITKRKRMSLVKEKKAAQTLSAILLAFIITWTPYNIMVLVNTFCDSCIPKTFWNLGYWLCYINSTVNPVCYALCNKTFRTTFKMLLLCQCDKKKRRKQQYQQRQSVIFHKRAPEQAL
Procedure, shortened: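 CHO-K1 cells stably expressing human M3 or M5 receptor, dye-loaded ≥1 h, treated with 11-point compound doses in triplicate; Ca++ flux read over 3 min (FDSS). Agonist-mode four-parameter fit; percent activity relative to carbachol EC100; repeat tests reported as geometric mean.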

[2] = target: T2, human cloned CHRM4 receptor (Homo sapiens, UniProt P08173); assay: CHRM4 Ca++ Flux Assay (M4_CHO cells, agonist mode); format: cell-based; conditions: for Emax / M4 FDSS PA %: Percent Activity (PA); for Emax: read-out: M4 FDSS PA %; for EC50: geometric mean if tested more than once, read-out: M4 FDSS EC50
T2 construct: expressed in transfected cells; host or cells: CHO-K1 (M4_CHO)
T2 sequence (P08173 1-479): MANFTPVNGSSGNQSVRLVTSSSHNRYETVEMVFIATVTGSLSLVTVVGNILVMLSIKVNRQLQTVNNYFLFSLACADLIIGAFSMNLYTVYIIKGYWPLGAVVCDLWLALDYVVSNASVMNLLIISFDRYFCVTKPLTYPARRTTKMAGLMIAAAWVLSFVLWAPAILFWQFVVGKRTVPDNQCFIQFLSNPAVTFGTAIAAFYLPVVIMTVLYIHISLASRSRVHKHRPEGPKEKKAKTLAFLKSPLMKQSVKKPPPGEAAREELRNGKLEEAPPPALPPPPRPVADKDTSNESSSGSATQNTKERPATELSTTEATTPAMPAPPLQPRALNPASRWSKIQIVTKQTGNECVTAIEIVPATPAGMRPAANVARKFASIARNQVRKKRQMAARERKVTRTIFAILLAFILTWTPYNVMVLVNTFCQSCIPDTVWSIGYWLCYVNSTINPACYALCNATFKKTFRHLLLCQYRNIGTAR
Procedure, shortened: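 CHO-K1 cells stably expressing human M4 were dye-loaded, then held 60 min at RT in Ca/Mg-free HBSS buffer with 20 μM ATP. Ca++ traces were recorded over 3 min after an 11-point compound series in triplicate, agonist mode, with a four-parameter fit. Percent activity is relative to the carbachol EC100; repeat tests are geometric means.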

SMILES | Emax [1] | EC50 [1] | Emax [2] | EC50 [2] | M3 FDSS PA % [1] | M4 FDSS PA % [2]
COc1ccc(Cl)cc1C1CCN([C@@H]2COC3(C2)CN(c2ncns2)C3)CC1 [Example 5A, (S)-7-(4-(5-chloro-2-methoxyphenyl)piperidin-1-yl)-2-(1,2,4-thiadiazol-5-yl)-5-oxa-2-azaspiro[3.4]octane] | 0% | > 25 µM | 60% | 0.074 µM | – | –
CC(C)(O)COc1ccc(F)cc1C1CCN([C@@H]2COC3(C2)CN(c2nncs2)C3)CC1 [Example 5U, (S)-1-(2-(1-(2-(1,3,4-thiadiazol-2-yl)-5-oxa-2-azaspiro[3.4]octan-7-yl)piperidin-4-yl)-4-fluorophenoxy)-2-methylpropan-2-ol] | 0% | > 25 µM | 67% | 0.238 µM | – | –
Fc1ccc(O[C@H]2CCCOC2)c(C2CCN([C@@H]3COC4(C3)CN(c3nnco3)C4)CC2)c1 (single isomer, unassigned) [Example 2Q, (S)-7-(4-(5-fluoro-2-(((S)-tetrahydro-2H-pyran-3-yl)oxy)phenyl)piperidin-1-yl)-2-(1,3,4-oxadiazol-2-yl)-5-oxa-2-azaspiro[3.4]octane or (S)-7-(4-(5-fluoro-2-(((R)-tetrahydro-2H-pyran-3-yl)oxy)phenyl)piperidin-1-yl)-2-(1,3,4-oxadiazol-2-yl)-5-oxa-2-azaspiro[3.4]octane] | – | > 25 µM | – | 0.13 µM | 0% | 81%
Fc1ccc(C2CCN([C@@H]3COC4(C3)CN(c3ncco3)C4)CC2)c(OC2COC2)c1 [Example 4S, (S)-7-(4-(4-fluoro-2-(oxetan-3-yloxy)phenyl)piperidin-1-yl)-2-(oxazol-2-yl)-5-oxa-2-azaspiro[3.4]octane] | 0% | > 25 µM | 74% | 0.021 µM | – | –
c1ccc(C2CCN([C@@H]3COC4(C3)CN(c3ncco3)C4)CC2)c(OC2COC2)c1 [Example 4C, (S)-2-(oxazol-2-yl)-7-(4-(2-(oxetan-3-yloxy)phenyl)piperidin-1-yl)-5-oxa-2-azaspiro[3.4]octane] | 0% | > 25 µM | 80% | 0.007 µM | – | –
CC(C)(O)[C@H]1C[C@@H](Oc2ccc(F)cc2C2CCN([C@@H]3COC4(C3)CN(c3ncco3)C4)CC2)C1 (single isomer, unassigned) [Example 4U, 2-((1R,3s)-3-(4-fluoro-2-(1-((S)-2-(oxazol-2-yl)-5-oxa-2-azaspiro[3.4]octan-7-yl)piperidin-4-yl)phenoxy)cyclobutyl)propan-2-ol or 2-((1S,3r)-3-(4-fluoro-2-(1-((S)-2-(oxazol-2-yl)-5-oxa-2-azaspiro[3.4]octan-7-yl)piperidin-4-yl)phenoxy)cyclobutyl)propan-2-ol] | – | > 25 µM | – | 0.042 µM | 0% | 62%
c1ccc(C2CCN([C@@H]3COC4(C3)CN(c3ncco3)C4)CC2)c(OC2CC3(COC3)C2)c1 [Example 4M, (S)-7-(4-(2-((2-oxaspiro[3.3]heptan-6-yl)oxy)phenyl)piperidin-1-yl)-2-(oxazol-2-yl)-5-oxa-2-azaspiro[3.4]octane] | 0% | > 25 µM | 82% | 0.086 µM | – | –
Fc1ccc(C2CCOCC2)c(C2CCN([C@@H]3COC4(C3)CN(c3ncco3)C4)CC2)c1 [Example 4W, (S)-7-(4-(5-fluoro-2-(tetrahydro-2H-pyran-4-yl)phenyl)piperidin-1-yl)-2-(oxazol-2-yl)-5-oxa-2-azaspiro[3.4]octane] | 0% | > 25 µM | 75% | 0.021 µM | – | –
c1ccc(C2CCN([C@@H]3COC4(C3)CN(c3ncco3)C4)CC2)c(OC2CCOCC2)c1 [Example 4J, (S)-2-(oxazol-2-yl)-7-(4-(2-((tetrahydro-2H-pyran-4-yl)oxy)phenyl)piperidin-1-yl)-5-oxa-2-azaspiro[3.4]octane] | 0% | > 25 µM | 82% | 0.03 µM | – | –
OC[C@H]1C[C@H](Oc2ccc(F)cc2C2CCN([C@@H]3COC4(C3)CN(c3nnco3)C4)CC2)C1 (single isomer, unassigned) [Example 2II, ((1S,3r)-3-(2-(1-((S)-2-(1,3,4-oxadiazol-2-yl)-5-oxa-2-azaspiro[3.4]octan-7-yl)piperidin-4-yl)-4-fluorophenoxy)cyclobutyl)methanol or ((1R,3s)-3-(2-(1-((S)-2-(1,3,4-oxadiazol-2-yl)-5-oxa-2-azaspiro[3.4]octan-7-yl)piperidin-4-yl)-4-fluorophenoxy)cyclobutyl)methanol] | – | > 25 µM | – | 0.124 µM | 0% | 81%
Fc1ccc(C2CCOCC2)c(C2CCN([C@@H]3COC4(C3)CN(c3nnco3)C4)CC2)c1 [Example 3D, (S)-7-(4-(5-fluoro-2-(tetrahydro-2H-pyran-4-yl)phenyl)piperidin-1-yl)-2-(1,3,4-oxadiazol-2-yl)-5-oxa-2-azaspiro[3.4]octane] | 0% | > 25 µM | 84% | 0.063 µM | – | –
Fc1ccc(OC[C@H]2COCCO2)c(C2CCN([C@@H]3COC4(C3)CN(c3nnco3)C4)CC2)c1 [Example 1C] | 0% | > 25 µM | 78% | 0.036 µM | – | –
Fc1ccc(OC[C@@H]2COCCO2)c(C2CCN([C@@H]3COC4(C3)CN(c3nncs3)C4)CC2)c1 [Example 5L, (S)-7-(4-(2-(((S)-1,4-dioxan-2-yl)methoxy)-5-fluorophenyl)piperidin-1-yl)-2-(1,3,4-thiadiazol-2-yl)-5-oxa-2-azaspiro[3.4]octane] | 0% | > 25 µM | 79% | 0.038 µM | – | –
Fc1cc(OC2COC2)c(C2CCN([C@@H]3COC4(C3)CN(c3nnco3)C4)CC2)cc1F [Example 2FF, (S)-7-(4-(4,5-difluoro-2-(oxetan-3-yloxy)phenyl)piperidin-1-yl)-2-(1,3,4-oxadiazol-2-yl)-5-oxa-2-azaspiro[3.4]octane] | 0% | > 25 µM | 66% | 0.026 µM | – | –
Fc1ccc(OC2COC2)c(C2CCN([C@@H]3COC4(C3)CN(c3nncs3)C4)CC2)c1 [Example 5G, (S)-7-(4-(5-fluoro-2-(oxetan-3-yloxy)phenyl)piperidin-1-yl)-2-(1,3,4-thiadiazol-2-yl)-5-oxa-2-azaspiro[3.4]octane] | 0% | > 25 µM | 76% | 0.013 µM | – | –
Fc1ccc(OC[C@H]2CCO2)c(C2CCN([C@@H]3COC4(C3)CN(c3nncs3)C4)CC2)c1.O=C(O)C(F)(F)F (single isomer, unassigned) [Example 2C, (S)-7-(4-(5-fluoro-2-(((R)-oxetan-2-yl)methoxy)phenyl)piperidin-1-yl)-2-(1,3,4-thiadiazol-2-yl)-5-oxa-2-azaspiro[3.4]octane trifluoroacetate or (S)-7-(4-(5-fluoro-2-(((S)-oxetan-2-yl)methoxy)phenyl)piperidin-1-yl)-2-(1,3,4-thiadiazol-2-yl)-5-oxa-2-azaspiro[3.4]octane trifluoroacetate] | – | > 25 µM | – | 0.094 µM | 0% | 72%
Fc1ccc(O[C@H]2CCOC2)c(C2CCN([C@@H]3COC4(C3)CN(c3nnco3)C4)CC2)c1 [Example 1H, (S)-7-(4-(5-fluoro-2-(((S)-tetrahydrofuran-3-yl)oxy)phenyl)piperidin-1-yl)-2-(1,3,4-oxadiazol-2-yl)-5-oxa-2-azaspiro[3.4]octane] | 0% | > 25 µM | 77% | 0.034 µM | – | –
COc1ccccc1C1CCN([C@@H]2COC3(C2)CN(c2ncco2)C3)CC1 [Example 4N, (S)-7-(4-(2-methoxyphenyl)piperidin-1-yl)-2-(oxazol-2-yl)-5-oxa-2-azaspiro[3.4]octane] | 0% | > 25 µM | 74% | 0.093 µM | – | –
Fc1ccc(OC2COC2)c(C2CCN([C@@H]3COC4(C3)CN(c3ncco3)C4)CC2)c1 [Example 4A, (S)-7-(4-(5-fluoro-2-(oxetan-3-yloxy)phenyl)piperidin-1-yl)-2-(oxazol-2-yl)-5-oxa-2-azaspiro[3.4]octane] | 0% | > 25 µM | 80% | 0.004 µM | – | –
